Assay results taken from patent publication US10428159B2, “Blocking monoclonal antibodies to AGR2 and its receptor C4.4A” (Board of Regents, The University of Texas System, priority 2014, dated 2019).

Tests used:
[1] = tested on: AsPC-1 cells; assay: Model 1 AsPC-1 aggressive cell model, orthotopic tumors; type: in vivo, athymic nude mice
Description: In vivo studies. In vivo experiments were conducted with athymic nude mice (B6.Cg-Foxn1^nu/J—female—age 9 weeks) (NCI, Bethesda, Md.) according to the UT MDACC regulatory standards and IUCAC committee approval. Orthotopic tumors were developed with luciferase-labeled cells (0.25×10^6). IgG (Cat #OB010701; Southern Biotech, Birmingham, Ala.) served as a control Ab.
Model 1 (AsPC-1-Aggressive Cell Model)—Two weeks after the injection of the aggressive AsPC-1 cells, when the tumors weighed less than 0.5 g (as surgically confirmed from a parallel untreated group), mice (n=6) were treated with control or mAbs (5 mg each of AGR2/C4.4A mAb in combination/kg/body weight/twice a week/i.p) and with or without Gem (100 mg/kg body weight/once a week/i.p) until all of the control mice had died (seven weeks). Tumor weight and metastasis to liver and lung were compared between control and treated groups ex vivo at the end of the experiment.

[2] = tested on: BxPC-3 cells; assay: Apoptosis assay (Gem, rAGR2); type: cell-based; conditions: BxPC-3, Gem 1 μM
Description: FIGS. 7A-D. Extracellular rAGR2-mediated functions. (A) Pancreatic cancer cells (BxPC-3 and MiaPaCa-2) were used for these studies. Extracellular addition of rAGR2 caused a significant dose-dependent increase in proliferation (BxPC-3-3-fold increase; MiaPaCa-2-4-fold increase; p<0.05). Pancreatic cancer cells were plated (2×10^4 cells) with and without rAGR2 (0-100 nM) on a Boyden's chamber for migration studies (B) and on an invasion chamber for invasion studies (C). After 22 h, cells were fixed with methanol and stained by hematoxylin, and cells in 10 random fields at 100× magnification were photographed and counted. Extracellular addition of rAGR2 caused a significant dose-dependent increase in migration (BxPC-3-7-fold increase; MiaPaCa-2-3-fold increase) and invasion (BxPC-3-10-fold increase; MiaPaCa-2-3-fold increase). (D) For analysis of apoptosis, BxPC-3 cells were treated with and without Gem (1 μM) and AGR2 (100 nM). […] Data shown are mean±SE for 3 experiments (*p<0.05 vs. control).
Cell growth, migration, invasion and apoptosis assays. Wild-type and siRNA transfected PDAC cells were grown with rAGR2 (0-500 nM) in the presence and absence of antibodies (polyclonal commercial or newly developed mAbs) (1 μM). The medium was refreshed daily. Cell numbers were estimated after 48 h by MTS assay as described previously (Ramachandran et al., 2007). […]

[3] = tested on: AsPC-1 cells; assay: Apoptosis assay (Gem, rAGR2, antibodies); type: cell-based; conditions: AsPC-1, 5 μM Gem
Description: FIGS. 11A-D. Monoclonal antibodies developed bind respectively to AGR2 and C4.4A proteins and blocked their functions. From the endogenous lysate (SU86.86/Panc-1), AGR2 (18 kD) and C4.4A (50 kD) were identified by a panel of mAbs. […] Extra bands identified with the endogenous protein were re-confirmed with the recombinant protein. For apoptosis studies, AsPC-1 cells were treated without or with Gem (0.5 μM) and rAGR2 (100 nM) and with purified (A) AGR2 and (B) C4.4A Abs (1 μM). Commercially available Abs served as control. […] Horizontal line represents median apoptotic value. Data shown are mean±SE for 3 experiments (*p<0.05). (C,D) Binding assays were conducted with purified (C) AGR2 and (D) C4.4A Abs as selected from the apoptosis assay as having high blocking efficiency. ELISA assays were conducted by coating antigenic peptide (0.5 μg) and probed with respective purified Abs. Data shown are mean±SE for 3 experiments (*p <0.05). Based on high specificity and binding, clone 28B for AGR2 and 1A for C4.4A were selected. Purified Abs were also run on 4-20% gradient gel to check for the presence of heavy (50 kD) and light chains (25 kD).
Cell growth, migration, invasion and apoptosis assays. Wild-type and siRNA transfected PDAC cells were grown with rAGR2 (0-500 nM) in the presence and absence of antibodies (polyclonal commercial or newly developed mAbs) (1 μM). The medium was refreshed daily. […]

Nc1ccn([C@@H]2O[C@H](CO)[C@@H](O)C2(F)F)c(=O)n1 [Gem, Gemcitabine, reference compound]
effect on tumor growth and metastasis incidence ([1]; Gem 100 mg/kg once a week i.p., alone or in combination with the mAbs): no significant effect | mice remained alive ([1]; after four weeks of treatment (six weeks total), when all control Ab mice had died): 30% | increase in apoptosis [2]: 1 fold | increase in apoptosis [3]: 3 fold
